Measurements as given in ChEMBL document CHEMBL1201862, “PubChem BioAssay data set” (2004).
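Growth conditions: 96-well plates. Treatment: test compound, 48 hours, 5 concentrations. Analysis: linear interpolation between bracketing concentrations; unreached endpoints set to highest concentration. At the GI50, growth is halved.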 Activity calls are given as the source filed them. Rule as the data show it: active = GI50 up to about 1.1 µM and inactive = higher.

Tests used:
Assay in all cases: DTP human tumour cell line panel, 48 h
[1] = system: M19-MEL
[2] = system: SK-OV-3
[3] = system: UACC-62
[4] = system: UACC-257
[5] = system: OVCAR-8
[6] = system: HT-29
[7] = system: TK-10
[8] = system: HOP-18
[9] = system: SF-295
[10] = system: ACHN
[11] = system: HOP-92
[12] = system: HCT-116
[13] = system: OVCAR-5
[14] = system: U-251
[15] = system: CCRF-CEM
[16] = system: SNB-78
[17] = system: MOLT-4
[18] = system: SK-MEL-28
[19] = system: K562
[20] = system: SF-539
[21] = system: HCT-15
[22] = system: CAKI-1
[23] = system: COLO 205
[24] = system: SW-620
[25] = system: SF-268
[26] = system: A549
[27] = system: KM12
[28] = system: UO-31
[29] = system: NCI-H226
[30] = system: RPMI-8226
[31] = system: EKVX
[32] = system: OVCAR-4
[33] = system: SK-MEL-5
[34] = system: DMS-273
[35] = system: HOP-62
[36] = system: LXFL 529
[37] = system: LOX IMVI
[38] = system: DLD-1
[39] = system: 786-0
[40] = system: A498
[41] = system: OVCAR-3
[42] = system: HL-60
[43] = system: SK-MEL-2
[44] = system: M14
[45] = system: SNB-19
[46] = system: SN12C
[47] = system: Malme-3M
[48] = system: IGROV-1
[49] = system: NCI-H23
[50] = system: KM-20L2
[51] = system: NCI-H460
[52] = system: SNB-75
[53] = system: DMS-114
[54] = system: NCI-H522
[55] = system: RXF 393
[56] = system: SR
[57] = system: HCC 2998

COc1cc(C2c3cc4c(cc3[C@@H](NCCN3CCCCC3)C3COC(=O)[C@H]23)OCO4)cc(OC)c1O (stereo partly drawn)
GI50 [1]: 805 nM (active)
GI50 [2]: 98 nM (active)
GI50 [3]: 272 nM (active)
GI50 [4]: 2780 nM (inactive)
GI50 [5]: 718 nM (active)
GI50 [6]: 1190 nM (inactive)
GI50 [7]: 1650 nM (inactive)
GI50 [8]: 303 nM (active)
GI50 [9]: 107 nM (active)
GI50 [10]: 486 nM (active)
GI50 [11]: 142 nM (active)
GI50 [12]: 1150 nM (inactive)
GI50 [13]: 1410 nM (inactive)
GI50 [14]: 109 nM (active)
GI50 [15]: 37.8 nM (active)
GI50 [16]: 2570 nM (inactive)
GI50 [17]: 16.4 nM (active)
GI50 [18]: 2110 nM (inactive)
GI50 [19]: 615 nM (active)
GI50 [20]: 134 nM (active)
GI50 [21]: 313 nM
GI50 [22]: 91.8 nM (active)
GI50 [23]: 1010 nM (active)
GI50 [24]: 1040 nM (active)
GI50 [25]: 346 nM (active)
GI50 [26]: 65.6 nM (active)
GI50 [27]: 1010 nM (active)
GI50 [28]: 410 nM (active)
GI50 [29]: 38.7 nM (active)
GI50 [30]: 277 nM (active)
GI50 [31]: 1550 nM (inactive)
GI50 [32]: 253 nM (active)
GI50 [33]: 394 nM (active)
GI50 [34]: 72.6 nM (active)
GI50 [35]: 64 nM (active)
GI50 [36]: 1800 nM (inactive)
GI50 [37]: 237 nM (active)
GI50 [38]: 1580 nM (inactive)
GI50 [39]: 179 nM (active)
GI50 [40]: 165 nM (active)
GI50 [41]: 780 nM (active)
GI50 [42]: 42.6 nM (active)
GI50 [43]: 2070 nM (inactive)
GI50 [44]: 273 nM (active)
GI50 [45]: 354 nM (active)
GI50 [46]: 1910 nM (inactive)
GI50 [47]: 290 nM (active)
GI50 [48]: 1330 nM (inactive)
GI50 [49]: 206 nM (active)
GI50 [50]: 1170 nM (inactive)

c1ccc2nc(-c3ccc4c(c3)OCO4)ccc2c1
GI50 [4]: 15600 nM (inactive)
GI50 [5]: 43500 nM (inactive)
GI50 [6]: 24700 nM (inactive)
GI50 [7]: 64000 nM (inactive)
GI50 [9]: 46700 nM (inactive)
GI50 [51]: 34500 nM (inactive)
GI50 [10]: 26500 nM (inactive)
GI50 [52]: 22500 nM (inactive)
GI50 [11]: 2800 nM (inactive)
GI50 [13]: 48500 nM (inactive)
GI50 [14]: 53600 nM (inactive)
GI50 [16]: 77600 nM (inactive)
GI50 [18]: > 100000 nM (inactive)
GI50 [20]: 56900 nM (inactive)
GI50 [53]: 23400 nM (inactive)
GI50 [22]: 28800 nM (inactive)
GI50 [23]: 74600 nM (inactive)
GI50 [24]: 77600 nM (inactive)
GI50 [25]: 37700 nM (inactive)
GI50 [26]: 49200 nM (inactive)
GI50 [27]: 24700 nM (inactive)
GI50 [28]: 20000 nM (inactive)
GI50 [29]: 21600 nM (inactive)
GI50 [31]: 24900 nM (inactive)
GI50 [32]: 24800 nM (inactive)
GI50 [54]: 31800 nM (inactive)
GI50 [34]: 26200 nM (inactive)
GI50 [55]: 15200 nM (inactive)
GI50 [35]: 22000 nM (inactive)
GI50 [36]: 22500 nM (inactive)
GI50 [37]: 26100 nM (inactive)
GI50 [39]: 76700 nM (inactive)
GI50 [41]: 26400 nM (inactive)
GI50 [42]: 29100 nM (inactive)
GI50 [43]: 41300 nM (inactive)
GI50 [44]: 54200 nM (inactive)
GI50 [45]: 73500 nM (inactive)
GI50 [56]: 16700 nM (inactive)
GI50 [57]: 38300 nM (inactive)
GI50 [46]: 43200 nM (inactive)
GI50 [47]: 18000 nM (inactive)
GI50 [49]: 47100 nM (inactive)
GI50 [50]: 39600 nM (inactive)
